Results: US9422261B2, “Heterocyclic resorcinol derivatives, preparation of same and cosmetic uses thereof” (PIERRE FABRE DERMO-COSMETIQUE, priority 2011, dated 2016)

How the values were obtained:
[1] = Antioxidant ability using chemiluminescence (Photochem, Analytik Jena); settings: for μg of sample for 1 μg of Trolox: trapping of superoxide anions, chemiluminescence
Source text: This test is used to determine the antioxidant ability of the molecules. It is a method that generates free radicals by a photochemical signal. The intensity of the oxidation is 1000 times greater than that obtained under normal conditions.
Detection is by chemiluminescence. It enables the evaluation of water-soluble and lipid-soluble antioxidant molecules or extracts.
The results are expressed as equivalents of vitamin C or Trolox (6-hydroxy-2,5,7,8-tetramethylchroman-2-carboxylic acid), respectively. The sensitivity is on the order of the nanomole.
The antioxidant activity studied in this test represents the ability to specifically trap superoxide anions by chemiluminescence.
The quantified results are expressed in Trolox equivalents (standard), or “μg of product for 1 μg of Trolox.” This means that a quantity x of sample is needed to obtain activity equivalent to the activity detected for 1 μg of the standard. This represents antioxidant ability relative to a reference, which frees us from concern about the concentration tested.
The superoxide radical (O2°^−) is generated by a photochemical reaction: L+hv(UV)+O2→L*O2→L°^++O2°^− L*: luminol in the excited state L°^+: luminol radical
Some of the superoxide anions are quenched by the antioxidants. The remaining free radicals are quantified by chemiluminescence. L°^++O2°^−→N2+AP*^2−→AP^2−+hv (luminescence) AP*^2−: aminophthalate in the excited state

[2] = Solubility in aqueous phase; format: physicochemical; settings: aqueous phase / aqueous acidic solution
[3] = system: B16-F10 cells; experiment: Assay of melanin in B16-F10 cells stimulated with α-MSH; format: cell-based, murine; settings: 72 hours, 0.1 μM α-MSH; for IC50: Mus musculus, B16-F10, read-out: Melanin assay, in strains B16F10, IC50; for Melanin assay, in strains B16F10 (%): negative value indicates inhibition
Method: This test measures melanin synthesis using a colorimetric assay on a murine melanoma cell line: B16-F10. […] B16-F10 cells are seeded in 96-well plates in DMEM medium supplemented with fetal calf serum (FCS) and then incubated for 24 hours at 37° C., 5% CO2. […] Each concentration of active agent is tested at least in triplicate. […] The total proteins are assayed in the lysate and the results are expressed in mg melanin/mg proteins: The percentage of activity is calculated as follows: A negative value indicates inhibition, whereas a positive value indicates induction of melanin synthesis. Biological Material: • B16-F10 cell line between […] (murine melanocytes) (ATCC, CRL-6475)

[4] = target: tyrosinase monophenol monooxygenase (MPMO) (Agaricus bisporus, UniProt C7FF04); experiment: biochemical
Method: (§1) The substrate, L-tyrosine, is transformed by the monophenol monooxygenase functional group into L-DOPA, itself transformed by the tyrosinase's polyphenol oxidase functional group into dopaquinone. The latter will auto-oxidize into dopachrome, which is measured by spectrophotometry at 490 nm.
(§2) More precisely, it is global tyrosinase activity (MPMOg) that is measured since ultimately it is dopachrome that is assayed. Thus, the products tested in terms of MPMOg (measurement of activity on PPO and MPMO) can accumulate the inhibition of the 2 functional groups; • inhibiting only the MPMO functional group in the strict sense (transformation of tyrosine into DOPA) in addition to the PPO test, • inhibiting only PPO.

[5] = target: tyrosinase polyphenol oxidase (PPO) (Agaricus bisporus, UniProt C7FF04); experiment: Tyrosinase inhibition test, polyphenol oxidase (PPO) function, reference molecules; format: biochemical, mushroom; settings: at 25 μM
Method: as §1, §2

tyrosinase monophenol monooxygenase (MPMO), sequence (C7FF04 1-392 limits assumed): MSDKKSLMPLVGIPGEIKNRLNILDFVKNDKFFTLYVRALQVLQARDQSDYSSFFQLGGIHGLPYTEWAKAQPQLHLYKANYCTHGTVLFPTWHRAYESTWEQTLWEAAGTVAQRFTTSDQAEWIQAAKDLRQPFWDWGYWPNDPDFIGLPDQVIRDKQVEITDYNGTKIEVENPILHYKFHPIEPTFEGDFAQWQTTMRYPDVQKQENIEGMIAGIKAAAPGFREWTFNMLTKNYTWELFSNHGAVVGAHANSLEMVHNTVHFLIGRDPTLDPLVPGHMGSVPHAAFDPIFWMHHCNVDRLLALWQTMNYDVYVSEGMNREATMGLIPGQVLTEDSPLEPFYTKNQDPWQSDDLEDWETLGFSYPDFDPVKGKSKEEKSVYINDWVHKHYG
tyrosinase polyphenol oxidase (PPO), sequence (C7FF04 1-392 limits assumed): as above

For `O=C(O)CCCC[C@@H]1CCSS1` (racemic) [Lipoic acid, reference compound], the “μg of sample for 1 μg of Trolox (scale used to interpret the results)” value ([1]; reference products of the interpretation scale) was “NEGATIVE”.

For `CC(c1ccccc1)c1ccc(O)cc1O` (stereo not drawn) [4-(1-phenylethyl)benzene-1,3-diol, reference compound], the “Solubility in aqueous phase” value [2] was “insoluble in aqueous phase”.

`OC[C@H]1O[C@@H](Oc2ccc(O)cc2)[C@H](O)[C@@H](O)[C@@H]1O` [Arbutin, reference compound] gave an IC50 [3] of 158 µM and an inhibition at 88 µM ([4]; read-out: % inhibition (MPMO)) of 57%.

For `CC(c1cccs1)c1ccc(O)cc1O` (stereo not drawn) [Compound 1, 4-(1-(thiophene-2-yl)ethyl)benzene-1,3-diol], the “μg of sample for 1 μg of Trolox” value [1] was 13.7 μg of sample for 1 μg of Trolox and the “Melanin assay, in strains B16F10 (%)” value ([3]; at 20 μM) was −50% at 20 μM.

For `CC(c1ccccn1)c1ccc(O)cc1O` (stereo not drawn) [Compound 2, 4-(1-(pyridin-2-yl)ethyl)benzene-1,3-diol], the “μg of sample for 1 μg of Trolox” value [1] was 10.4 μg of sample for 1 μg of Trolox and the “Melanin assay, in strains B16F10 (%)” value ([3]; at 20 μM) was −26% at 20 μM.

With `CC(c1cccnc1)c1ccc(O)cc1O` (stereo not drawn) [Compound 3, 4-(1-(pyridin-3-yl)ethyl)benzene-1,3-diol] the “Solubility in aqueous phase” value [2] was “dissolve the active ingredient in aqueous acidic solution”, the “μg of sample for 1 μg of Trolox” value [1] was 8.7 μg of sample for 1 μg of Trolox and the “Melanin assay, in strains B16F10 (%)” value ([3]; at 20 μM) was −52% at 20 μM.

In the case of `CC(c1ccsc1)c1ccc(O)cc1O` (stereo not drawn) [Compound 4, 4-(1-(thiophene-3-yl)ethyl)benzene-1,3-diol], the “μg of sample for 1 μg of Trolox” value [1] is reported as 15.4 μg of sample for 1 μg of Trolox and the “Melanin assay, in strains B16F10 (%)” value ([3]; at 20 μM) is reported as −52% at 20 μM.

With `CC(c1nccs1)c1ccc(O)cc1O` (stereo not drawn) [Compound 5, 4-(1-(thiazol-2-yl)ethyl)benzene-1,3-diol] the “μg of sample for 1 μg of Trolox” value [1] was 11.7 μg of sample for 1 μg of Trolox and the “Melanin assay, in strains B16F10 (%)” value ([3]; at 20 μM) was −33% at 20 μM.

With `CC(C)CC(c1cccs1)c1ccc(O)cc1O` (stereo not drawn) [Compound 28, 4-(3-methyl-1-(thiophene-2-yl)butyl)benzene-1,3-diol] the melting point was 89.9 °C and the “Melanin assay, in strains B16F10 (%)” value ([3]; at 10 μM) was −52% at 10 μM.

For `CCCC(c1cccs1)c1ccc(O)cc1O` (stereo not drawn) [Compound 31, 4-(1-(thiophene-2-yl)butyl)benzene-1,3-diol], the “Melanin assay, in strains B16F10 (%)” value ([3]; at 10 μM) was −50% at 10 μM.

`O=c1cc(CO)occ1O` [Kojic acid, reference compound] gave an IC50 [3] of 2400 µM.

With `N[C@@H](CCC(=O)N[C@@H](CS)C(=O)NCC(=O)O)C(=O)O` [Reduced glutathione] the “% inhibition (PPO)” value [5] was 55% and the IC50 ([4]; read-out: IC50 (MPMO), reference molecules for the test, MPMO) was 1 to 2 µM.
